Results as given in patent publication US8119640B2, “Hedgehog pathway antagonists methods of use” (The Board of Trustees of the Leland Stanford Junior …, priority 2008, dated 2012).
Like-named read-outs stand apart in the source and are kept apart here.

Legend:
Type in all cases: cell-based
C3H10T(1/2) cells = assay: C3H10T(1/2) assay for Hh pathway activation (alkaline phosphatase); details: Mus musculus
Experimental: C3H10T(1/2) assay for Hh pathway activation. C3H10T(1/2) cells (ATCC) were plated into 96-well plates using DMEM containing 10% FBS, 100 U/mL penicillin, 0.1 mg/mL streptomycin, 5% Shh-N-conditioned medium, and various concentrations of the Hh pathway inhibitors. After approximately 40 h, the cells were washed with PBS and lysed in 50 μL of buffer containing 50 mM Tris-HCl, pH 9.5, 150 mM NaCl, 5 mM MgCl2, and 1% Triton X-100. Alkaline phosphatase activities in the cell lysates were quantified by adding 10 μL of the lysate to 50 μL of CDP-Star chemiluminescence reagent (Perkin Elmer) and measuring the resulting chemiluminescence on a Veritas microplate luminometer.

Hh pathway = assay: Shh-EGFP assay for Hh pathway activation; details: Shh-N-conditioned medium; HPIs at ten-fold their Shh-LIGHT2 IC50 or 30 μM, whichever lower
Experimental: Shh-EGFP assay for Hh pathway activation. A Gli-dependent enhanced green fluorescent protein reporter (Shh-EGFP) was generated by excising firefly luciferase cDNA from the 8XGliBs vector using NcoI/Hpal, and ligating in EGFP cDNA excised from the pEGFP-C1 vector (Clontech) by NcoI/Af/II digestion. […] The cells were grown to confluency and treated with DMEM containing 0.5% CS, 100 U/mL penicillin, 0.1 mg/mL streptomycin, and 5% Shh-N-conditioned medium for 30 h. Following Shh-N treatment, the adherent cultures were dissociated into single cells with 0.05% Trypsin-EDTA (300 μL/well; Invitrogen) for 5 min. The cells were then suspended in 1 mL of PBS containing 1% CS and sorted on a BD FACSAria (excitation: 488 nm; emission: 530/30 nm) to enrich for cells expressing EGFP in a Shh-N-responsive manner. […] To identify Shh-EGFP clones with maximum Shh-N-responsiveness, individual lines were seeded into 24-well plates (45,000 cell/well) and cultured for 48 h. The cells were then treated with DMEM containing 0.5% CS, 100 U/mL pencillin, 0.1 mg/mL streptomycin or the culture medium plus 5% Shh-N-conditioned medium. After 30 h, the adherent cultures were treated with 0.05% trypsin-EDTA (150 μL/well; Invitrogen) for 5 min to dissociate them into single cells. The cells were then resuspended in 500 μL of PBS containing 1% CS and analyzed on a BD FACSCalibur (excitation: 488 nm; emission: 530/30 nm). 10,000 cells were used to assess EGFP expression levels as a measure of Hh pathway activation, and the data was analyzed using FlowJo software (Tree Star). Clones with low basal EGFP levels and maximum Shh-Ninduced EGFP expression were selected for further use. To assess the inhibitory activities of the HPIs in the Shh-EGFP cells, a clonal line with maximum Shh-responsiveness was cultured in 24-well plates as described above. […] The resulting EGFP levels were then evaluated by FACS and quantified using the FlowJo software.

NIH-3T3 cells = assay: Microtubule cytoskeleton staining of HPI-treated NIH-3T3 cells; details: tubulin antibody staining
Experimental: Immunostaining of FLAG-Gli lines and NIH-3T3 cells. The FLAG-Gli1-expressing or FLAG-Gli2-expressing clonal cell lines were seeded into 24-well plates (80,000 cells/well) containing poly-D-lysine-coated 12-mm glass coverslips. […] The cells were subsequently fixed in 4% paraformaldehyde for 10 min at room temperature followed by treatment with methanol at −20° C. for 2 to 5 min. The cells were washed with PBS, permeabilized with 0.2% Triton X-100 for 2 to 5 min, and then blocked with PBS containing 2% BSA for 3 h at room temperature. The coverslips were then treated with mouse anti-FLAG M2 antibody (Sigma; 1:1,000 dilution in blocking buffer) and rabbit anti-Arl13b (10) (1:1,000 dilution in blocking buffer) for 3 h at room temperature and washed 3×5 min with PBS. The coverslips were incubated next with Alexa Fluor 594-conjugated goat anti-mouse IgG and Alexa Fluor 488-conjugated donkey anti-rabbit IgG antibodies (Invitrogen; 1:1,000 dilutions in blocking buffer) for 2 h at room temperature. After washes with PBS and a 5-min incubation with 4,6-diamidino-2-phenylindole (DAPI), the samples were mounted using Prolong Gold (Invitrogen) and imaged with an upright Leica DM4500B compound microscope. In order to quantify ciliary Gli2 localization, a circular region with diameter equal to the average width of cilia as determined by the anti-Arl13b antibody staining was manually placed at the distal end of each cilium. Regions were transferred from the anti-Arl13b antibody image to the anti-FLAG antibody image, and FLAG staining intensities within those areas were assessed. Between 40 and 80 cilia were analyzed for each condition. To normalize ciliary FLAG-Gli2 levels with respect to compound-dependent changes in total FLAG-Gli2 levels, the absolute average intensities for each condition were divided by the fold change in FLAG-Gli2 levels, as determined by the quantitative immunoblotting described above. Quantification of ciliary FLAG-Gli1 levels was performed in an analogous manner. Since HPI-4 perturbs primary cilia formation, only Arl13b-positive structures that could be clearly identified as cilia were used for Gli protein quanitification in HPI-4-treated cells. To assess cytoplasmic microtubule structures in cells treated with the HPIs, NIH-3T3 cells were cultured on poly-D-lysine-coated 12-mm glass coverslip, treated with the HPIs, and fixed with 4% paraformalehyde as described above. In place of the methanol treatment, the cells were permeabilitized with PBS containing 0.1% Triton X-100 for 1 min. Washing, blocking, and antibody incubation steps were then conducted as before, using mouse anti-<-tubulin (DM1-A, Sigma, 1:2,000 in blocking buffer). Secondary antibody treatments, DAPI staining, mounting, and imaging were then conducted as described above.

[1] = C3H 10T1/2, Shh-induced differentiation, alkaline phosphatase, read-out: IC50 (uM) Shh/C3H10T[1/2] cells

Q: How did the IC50 (C3H10T(1/2) cells; [1]) turn out when `COCCOC(=O)C1=C(C)NC2=C(C(=O)CC(c3ccccc3OC)C2)C1c1cccc(O)c1` (mixture of isomers) [Compound 8, 4-(3-Hydroxy-phenyl)-7-(2-methoxy-phenyl)-2-methyl-5-oxo-1,4,5,6,7,8-hexahydro-quinoline-3-carboxylic acid 2-methoxy-ethyl ester] was run?
A: 0.4 µM

Q: What about the “% Inhibition Shh-GFP cells” value (Hh pathway) of the same molecule?
A: 86%

Q: And the Microtubule disruption (NIH-3T3 cells)?
A: No

Q: How did the IC50 (C3H10T(1/2) cells; [1]) turn out when `N#Cc1cc2c(nc1SCC(=O)Nc1nc3ccccc3s1)CCC2` [Compound 1] was run?
A: 0.9 µM

Q: And the “% Inhibition Shh-GFP cells” value (Hh pathway)?
A: 74.4%

Q: What about the Microtubule disruption (NIH-3T3 cells) of the same molecule?
A: No

Q: Which results are given for `CCCCNC(=N)C(C)c1ccc(CC(C)C)cc1` (stereo not drawn) [Compound 2]?
A: IC50 (C3H10T(1/2) cells; [1]): 0.8 µM; % Inhibition Shh-GFP cells (Hh pathway): 80.9%; Microtubule disruption (NIH-3T3 cells): No

Q: With `Cc1cc(/C=c2\sc3nc4ccccc4n3c2=O)c(C)n1C(C)C` [Compound 3] as the molecule, how does the IC50 (C3H10T(1/2) cells; [1]) read?
A: 0.9 µM

Q: And the “% Inhibition Shh-GFP cells” value (Hh pathway)?
A: 60.5%

Q: And the Microtubule disruption (NIH-3T3 cells)?
A: No

Q: Which IC50 (C3H10T(1/2) cells; [1]) does the source give for `O=C(Nc1cccc2ccccc12)OC[C@@H]1CCCN2CCCC[C@H]12` [Compound 4] here?
A: 0.8 µM

Q: What about the “% Inhibition Shh-GFP cells” value (Hh pathway) of the same molecule?
A: 63%

Q: And the Microtubule disruption (NIH-3T3 cells)?
A: No

Q: `CCC(C)NS(=O)(=O)c1ccc(Cc2ccc(S(=O)(=O)NC(C)CC)cc2)cc1` (stereo not drawn) [Compound 5] was tested. Which IC50 (C3H10T(1/2) cells; [1]) did it give?
A: 0.9 µM

Q: And the “% Inhibition Shh-GFP cells” value (Hh pathway)?
A: 84.9%

Q: What about the Microtubule disruption (NIH-3T3 cells) of the same molecule?
A: No

Q: Which IC50 (C3H10T(1/2) cells; [1]) does the source give for `CCOC(=O)c1cc2c(=O)n3ccccc3nc2n(C(C)C)c1=NC(=O)c1cc(OC)cc(OC)c1` [Compound 6] here?
A: 0.45 µM

Q: And the “% Inhibition Shh-GFP cells” value (Hh pathway)?
A: 84.5%

Q: What about the Microtubule disruption (NIH-3T3 cells) of the same molecule?
A: No

Q: Which IC50 (C3H10T(1/2) cells; [1]) does the source give for `CCN1CCCC1CNC(=O)C1CCN(c2nc3c(C)cc(C)cc3s2)CC1` (stereo not drawn) [Compound 7] here?
A: 0.8 µM

Q: What about the “% Inhibition Shh-GFP cells” value (Hh pathway) of the same molecule?
A: 90.5%

Q: And the Microtubule disruption (NIH-3T3 cells)?
A: No

Q: `CCOC(=O)c1cn(-c2ccccc2)nc1-c1ccc(OC)c(OC)c1` [Compound 9] was tested. Which IC50 (C3H10T(1/2) cells; [1]) did it give?
A: 0.8 µM

Q: And the “% Inhibition Shh-GFP cells” value (Hh pathway)?
A: 86.5%

Q: What about the Microtubule disruption (NIH-3T3 cells) of the same molecule?
A: No

Q: `O=S(=O)(Nc1cc(Cl)c(Cl)cc1Cl)c1ccc(F)cc1` [Compound 10] was tested. Which IC50 (C3H10T(1/2) cells; [1]) did it give?
A: 4 µM

Q: What about the “% Inhibition Shh-GFP cells” value (Hh pathway) of the same molecule?
A: 78.8%

Q: What about the Microtubule disruption (NIH-3T3 cells) of the same molecule?
A: No

Q: How did the IC50 (C3H10T(1/2) cells; [1]) turn out when `OCCNc1nc(N2CCN(c3ccccc3)CC2)nc2ccccc12` [Compound 11] was run?
A: 2 µM

Q: What about the “% Inhibition Shh-GFP cells” value (Hh pathway) of the same molecule?
A: 76.7%

Q: And the Microtubule disruption (NIH-3T3 cells)?
A: No

Q: Which results are given for `CC(C)(C)N(CCNS(=O)(=O)c1ccc(-c2cc(C(F)(F)F)no2)s1)Cc1ccco1` [Compound 12]?
A: IC50 (C3H10T(1/2) cells; [1]): 0.25 µM; % Inhibition Shh-GFP cells (Hh pathway): 87.5%; Microtubule disruption (NIH-3T3 cells): No

Q: What does the source list for `CN1CCN(C2Cc3ccccc3Sc3ccccc32)CC1` (stereo not drawn) [Compound 13]?
A: IC50 (C3H10T(1/2) cells; [1]): 2.5 µM; % Inhibition Shh-GFP cells (Hh pathway): 78.3%; Microtubule disruption (NIH-3T3 cells): No

Q: Which results are given for `CCOc1ccc2ncc(C(=O)c3ccc(C)cc3)c(N3CCCC3)c2c1` [Compound 14]?
A: IC50 (C3H10T(1/2) cells; C3H 10T1/2, read-out: IC50 (uM) Shh/C3H10T[1/2] cells): 0.4 µM; % Inhibition Shh-GFP cells (Hh pathway): 67.2%; Microtubule disruption (NIH-3T3 cells): No

Q: Which IC50 (C3H10T(1/2) cells; [1]) does the source give for `O=C(Nc1nnc(S(=O)(=O)N2CCCCC2)s1)c1cccc(Br)c1` [Compound 15] here?
A: 4 µM

Q: What about the “% Inhibition Shh-GFP cells” value (Hh pathway) of the same molecule?
A: 86.9%

Q: And the Microtubule disruption (NIH-3T3 cells)?
A: No

Q: How did the IC50 (C3H10T(1/2) cells; [1]) turn out when `CCOc1ccc(CCNc2cnnc3c(Cl)cccc23)cc1OCC` [Compound 16] was run?
A: 0.2 µM

Q: And the “% Inhibition Shh-GFP cells” value (Hh pathway)?
A: 82.7%

Q: And the Microtubule disruption (NIH-3T3 cells)?
A: No

Q: With `COc1ccc(OC)c2c1cc1n2CC(C)(C(=O)NC2CCCCCCC2)N(CCN(C)C)C1=O` (stereo not drawn) [Compound 17] as the molecule, how does the IC50 (C3H10T(1/2) cells; [1]) read?
A: 2 µM

Q: And the “% Inhibition Shh-GFP cells” value (Hh pathway)?
A: 80.2%

Q: What about the Microtubule disruption (NIH-3T3 cells) of the same molecule?
A: No

Q: For `N#CC(C(=O)c1ccc(Cl)cc1Cl)=C1NC(=O)c2ccccc2N1` [Compound 18], which IC50 (C3H10T(1/2) cells; [1]) is on record?
A: 0.7 µM

Q: And the “% Inhibition Shh-GFP cells” value (Hh pathway)?
A: 80%

Q: And the Microtubule disruption (NIH-3T3 cells)?
A: No
